{"source": "patent US8309351B2", "about": "“Methods of identifying agents that inhibit angiogenesis” (Bionomics Limited, priority 2007, dated 2012)", "origin": "cited, not measured here", "system": "lung cancer cells", "conditions": "knock-down of beta III tubulin in lung cancer cells", "data": [{"smiles": "CC(=O)O[C@H]1C(=O)[C@@]2(C)[C@H]([C@H](OC(=O)c3ccccc3)[C@]3(O)C[C@H](OC(=O)[C@H](O)[C@@H](NC(=O)c4ccccc4)c4ccccc4)C(C)=C1C3(C)C)[C@]1(OC(C)=O)CO[C@@H]1C[C@@H]2O", "note": "[paclitaxel]", "values": [{"measurement": "increase in paclitaxel sensitivity", "value": 39, "unit": "%"}]}]}
